Square brackets hold non-standard residues; d marks the D form. Peptide text beside a SMILES is read from it. * marks the point of attachment. Orn = NCCC[C@H](N)C(=O)O; Hexanoyl = CCCCCC(=O)*; Aib = CC(C)(N)C(=O)O
Tests used:
[1] = biological target: T1, rat VPAC1 receptor (Rattus norvegicus, UniProt P30083); test: DiscoveRx cAMP assay, in vitro potency at rat VPAC1 receptor; format: cell-based; conditions: CHO-PO cells transiently transfected with rat VPAC1; cAMP generation; mean of two independent runs
T1 construct: expressed in transfected cells; host or cells: CHO-PO (transient, Lipofectamine)
T1 sequence (P30083 31-459): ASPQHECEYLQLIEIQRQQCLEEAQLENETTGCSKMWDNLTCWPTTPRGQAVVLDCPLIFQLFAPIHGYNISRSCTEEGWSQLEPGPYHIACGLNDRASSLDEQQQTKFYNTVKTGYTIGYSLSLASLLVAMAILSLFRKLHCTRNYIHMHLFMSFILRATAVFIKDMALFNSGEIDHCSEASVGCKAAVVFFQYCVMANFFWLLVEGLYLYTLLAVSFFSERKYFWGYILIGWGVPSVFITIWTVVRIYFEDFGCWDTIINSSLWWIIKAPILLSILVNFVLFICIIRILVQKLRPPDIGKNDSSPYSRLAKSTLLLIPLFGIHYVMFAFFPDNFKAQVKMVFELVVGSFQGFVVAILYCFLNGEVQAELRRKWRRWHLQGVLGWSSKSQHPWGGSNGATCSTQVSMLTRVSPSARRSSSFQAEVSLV
Experimental: (§1) DiscoveRx: CHO-PO cells are transiently transfected with rat VPAC1 or VPAC2 receptor DNA using commercially available transfection reagents (Lipofectamine from Invitrogen). The cells are seeded at a density of 10,000/well in a 96-well plate and are allowed to grow for 3 days in […] culture medium. At day 3, the assay is performed.
(§2) On the day of the experiment, the medium is removed. Also, the cells are washed twice. The cells are incubated in assay buffer plus IBMX for 15 minutes at room temperature. Afterwards, the stimuli are added and are dissolved in assay buffer. The stimuli are present for 30 minutes. Then, the assay buffer is gently removed. The cell lysis reagent of the DiscoveRx cAMP kit is added. Thereafter, the standard protocol for developing the cAMP signal as described by the manufacturer is used (DiscoveRx Inc., USA). EC50 values for cAMP generation are calculated from the raw signal or are based on absolute cAMP levels as determined by a standard curve performed on each plate.
(§3) Results for each agonist are the mean of two independent runs. Rat VPAC1 and VPAC2 results are only generated using the DiscoveRx assay.

[2] = biological target: T2, human VPAC1 (Homo sapiens, UniProt P32241); test: Filter binding assay, 125I-labeled VIP tracer, VPAC1 membranes; conditions: read-out: Human VPAC1 Receptor Binding (IC50; nM)
T2 construct: expressed in transfected cells
T2 sequence (P32241 31-457): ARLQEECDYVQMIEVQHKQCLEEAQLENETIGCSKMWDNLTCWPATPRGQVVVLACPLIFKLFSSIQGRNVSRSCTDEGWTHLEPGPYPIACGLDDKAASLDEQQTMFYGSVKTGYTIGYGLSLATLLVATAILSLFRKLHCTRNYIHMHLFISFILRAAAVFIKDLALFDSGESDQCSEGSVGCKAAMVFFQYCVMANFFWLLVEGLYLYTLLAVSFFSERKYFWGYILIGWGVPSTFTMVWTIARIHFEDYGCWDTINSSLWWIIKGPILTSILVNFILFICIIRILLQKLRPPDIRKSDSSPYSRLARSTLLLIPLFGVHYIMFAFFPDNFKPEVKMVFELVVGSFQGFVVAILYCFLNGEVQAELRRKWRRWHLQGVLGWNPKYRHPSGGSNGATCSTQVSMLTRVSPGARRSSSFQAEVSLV
Experimental: (§4) For this assay, the solutions and equipment include:
(§5) Presoak solution: 0.5% Polyethyleneamine in Aqua dest
(§6) Buffer for flushing filter plates: 25 mM HEPES pH 7.4
(§7) Blocking buffer: 25 mM HEPES pH 7.4; 0.2% protease free BSA
(§8) Assay buffer: 25 mM HEPES pH 7.4; 0.5% protease free BSA
(§9) Dilution and assay plate: PS-Microplate, U form
(§10) Filtration Plate: Multiscreen FB Opaque Plate; 1.0 μM Type B Glasfiber filter
(§11) In order to prepare the filter plates, the presoak solution is aspirated by vacuum filtration. The plates are flushed twice with 200 μL flush buffer. 200 μL blocking buffer is added to the filter plate. The filter plate is then incubated with 200 μL presoak solution for 1 hour at room temperature.
(§12) The assay plate is filled with 25 μL assay buffer, 25 μL membranes (2.5 μg) suspended in assay buffer, 25 μL compound (agonist) in assay buffer, and 25 μL tracer (about 40000 cpm) in assay buffer. The filled plate is incubated for 1 hour with shaking.
(§13) The transfer from assay plate to filter plate is conducted. The blocking buffer is aspirated by vacuum filtration and washed two times with flush buffer. 90 μL is transferred from the assay plate to the filter plate. The 90 μL transferred from assay plate is aspirated and washed three times with 200 μL flush buffer. The plastic support is removed. It is dried for 1 hour at 60° C. 30 μL Microscint is added. The count is performed.

[3] = biological target: T3, human PAC1 (Homo sapiens, UniProt P41586); test: Filter binding assay, 125I-labeled PACAP-27 tracer, PAC1 membranes; conditions: read-out: Human PAC1 Receptor Binding (IC50; nM)
T3 construct: expressed in transfected cells
T3 sequence (P41586 21-468): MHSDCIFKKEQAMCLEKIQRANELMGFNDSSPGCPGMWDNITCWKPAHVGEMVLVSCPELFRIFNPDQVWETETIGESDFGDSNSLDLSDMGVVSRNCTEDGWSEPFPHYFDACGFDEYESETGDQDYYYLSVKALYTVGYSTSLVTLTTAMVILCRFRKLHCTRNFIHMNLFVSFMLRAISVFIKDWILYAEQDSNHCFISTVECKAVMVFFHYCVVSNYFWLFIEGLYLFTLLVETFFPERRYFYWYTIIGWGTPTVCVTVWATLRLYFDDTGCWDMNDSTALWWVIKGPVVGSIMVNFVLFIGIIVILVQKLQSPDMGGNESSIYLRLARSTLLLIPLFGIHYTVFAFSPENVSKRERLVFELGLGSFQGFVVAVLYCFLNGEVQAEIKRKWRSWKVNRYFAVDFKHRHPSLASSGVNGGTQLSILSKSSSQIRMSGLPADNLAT
Experimental: as §4, §5, §6, §7, §8, §9, §10, §11, §12, §13

[4] = Rat serum stability (activity remaining, CHO-VPAC2 DiscoveRx read-out); format: in vitro ADME
How it was run: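 Peptides preincubated overnight in rat serum at 37 °C without aprotinin versus 4 °C with aprotinin, then tested as 11-point 5× dilutions in duplicate on CHO-VPAC2 cells, 30 min at RT. cAMP measured by DiscoveRx kit against standards; EC50 derived for each aliquot.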

[5] = biological target: T4, human VPAC2 (Homo sapiens, UniProt P41587); test: Filter binding assay, 125I-labeled VIP tracer, VPAC2 membranes; conditions: read-out: Human VPAC2 Receptor Binding (IC50; nM)
T4 construct: expressed in transfected cells
T4 sequence (P41587 24-438): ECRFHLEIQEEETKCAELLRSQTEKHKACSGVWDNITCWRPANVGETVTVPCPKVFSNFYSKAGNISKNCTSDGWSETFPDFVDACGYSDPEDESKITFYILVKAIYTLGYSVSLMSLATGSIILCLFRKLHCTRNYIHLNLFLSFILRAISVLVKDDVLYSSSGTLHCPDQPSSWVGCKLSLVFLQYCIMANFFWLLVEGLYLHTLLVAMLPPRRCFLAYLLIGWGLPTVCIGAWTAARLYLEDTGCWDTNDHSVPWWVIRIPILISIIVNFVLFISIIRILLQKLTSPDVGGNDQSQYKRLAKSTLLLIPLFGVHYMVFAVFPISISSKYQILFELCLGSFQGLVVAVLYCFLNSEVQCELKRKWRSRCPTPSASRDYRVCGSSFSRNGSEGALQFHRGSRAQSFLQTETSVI
Experimental: as §4, §5, §6, §7, §8, §9, §10, §11, §12, §13

[6] = biological target: T4, human VPAC2; test: Alpha screen cAMP assay, in vitro potency at human VPAC2 receptor; format: cell-based; conditions: cAMP generation; single result from two analyses in a single run, some values average of more than one experiment
[7] = biological target: T5, rat VPAC2 receptor (Rattus norvegicus, UniProt P35000); test: DiscoveRx cAMP assay, in vitro potency at rat VPAC2 receptor; format: cell-based; conditions: CHO-PO cells transiently transfected with rat VPAC2; cAMP generation; mean of two independent runs
T5 construct: expressed in transfected cells; host or cells: CHO-PO (transient, Lipofectamine)
T5 sequence (P35000 23-437): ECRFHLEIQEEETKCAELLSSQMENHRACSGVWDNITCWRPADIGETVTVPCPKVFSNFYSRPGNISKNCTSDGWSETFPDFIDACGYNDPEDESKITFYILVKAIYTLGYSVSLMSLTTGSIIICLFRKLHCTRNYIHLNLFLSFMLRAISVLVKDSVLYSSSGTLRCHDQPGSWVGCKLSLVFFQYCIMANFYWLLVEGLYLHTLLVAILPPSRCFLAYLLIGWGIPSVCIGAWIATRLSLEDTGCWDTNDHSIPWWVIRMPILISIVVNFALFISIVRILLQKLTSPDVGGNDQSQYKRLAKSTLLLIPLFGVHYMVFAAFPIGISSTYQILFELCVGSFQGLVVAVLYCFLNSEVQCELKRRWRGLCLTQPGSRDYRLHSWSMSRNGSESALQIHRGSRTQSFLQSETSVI
Experimental: as §1, §2, §3

| SMILES | EC50 [1] [nM] | IC50 [2] [nM] | IC50 [3] [nM] | Rat Serum Stability (estimated purity in % after overnight incub.) [4] [%] | IC50 [5] [nM] | EC50 [6] [nM] | EC50 [7] [nM] |
| --- | --- | --- | --- | --- | --- | --- | --- |
| CCCCCC(=O)N[C@@H](Cc1c[nH]cn1)C(=O)N[C@@H](CO)C(=O)N[C@@H](CC(=O)O)C(=O)N[C@@H](C)C(=O)N[C@H](C(=O)N[C@@H](Cc1ccccc1)C(=O)N[C@H](C(=O)N[C@@H](CC(=O)O)C(=O)N[C@@H](CC(N)=O)C(=O)N[C@@H](Cc1ccc(O)cc1)C(=O)N[C@H](C(=O)N[C@@H](CCCN)C(=O)N[C@@H](CC(C)C)C(=O)N[C@@H](CCCNC(=N)N)C(=O)NC(C)(C)C(=O)N[C@@H](CCC(N)=O)C(=O)N[C@H](C(=O)N[C@@H](C)C(=O)N[C@@H](C)C(=O)NC(C)(C)C(=O)N[C@@H](CCCCN)C(=O)N[C@@H](Cc1ccc(O)cc1)C(=O)N[C@@H](CO)C(=O)N[C@@H](CCC(N)=O)C(=O)N[C@@H](CO)C(=O)N[C@H](C(=O)N[C@@H](CCCN)C(=O)N[C@@H](CC(N)=O)C(=O)N[C@@H](CCCN)C(=O)NCC(=O)NCC(=O)N1CCC[C@H]1C(=O)N[C@@H](CO)C(=O)N[C@@H](CO)C(=O)NCC(=O)N[C@@H](C)C(=O)N1CCC[C@H]1C(=O)N1CCC[C@H]1C(=O)N1CCC[C@H]1C(=O)N[C@@H](CO)C(=O)O)[C@@H](C)CC)C(C)C)[C@@H](C)O)[C@@H](C)O)C(C)C [Agonist P384] (Hexanoyl-HSDAVFTDNYT[Orn]LR[Aib]QVAA[Aib]KYSQSI[Orn]N[Orn]GGPSSGAPPPS-OH; C-terminus assumed) | > 600 | > 3000 | > 25000 | 96.45 |  |  |  |
| CCCCCC(=O)N[C@@H](Cc1c[nH]cn1)C(=O)N[C@@H](CO)C(=O)N[C@@H](CC(=O)O)C(=O)N[C@@H](C)C(=O)N[C@H](C(=O)N[C@@H](Cc1ccccc1)C(=O)N[C@H](C(=O)N[C@@H](CC(=O)O)C(=O)N[C@@H](CC(N)=O)C(=O)N[C@@H](Cc1ccc(O)cc1)C(=O)N[C@H](C(=O)N[C@@H](CCCN)C(=O)N[C@@H](CC(C)C)C(=O)N[C@@H](CCCNC(=N)N)C(=O)NC(C)(C)C(=O)N[C@@H](CCC(N)=O)C(=O)N[C@H](C(=O)N[C@@H](CO)C(=O)N[C@@H](C)C(=O)NC(C)(C)C(=O)N[C@@H](CCCCN)C(=O)N[C@@H](Cc1ccc(O)cc1)C(=O)N[C@@H](CC(C)C)C(=O)N[C@@H](CCC(N)=O)C(=O)N[C@@H](CO)C(=O)N[C@H](C(=O)N[C@@H](CCCN)C(=O)N[C@@H](CC(N)=O)C(=O)N[C@@H](CCCN)C(=O)NCC(=O)NCC(=O)N1CCC[C@H]1C(=O)N[C@@H](CO)C(=O)N[C@@H](CO)C(=O)NCC(=O)N[C@@H](C)C(=O)N1CCC[C@H]1C(=O)N1CCC[C@H]1C(=O)N1CCC[C@H]1C(=O)N[C@@H](CO)C(=O)O)[C@@H](C)CC)C(C)C)[C@@H](C)O)[C@@H](C)O)C(C)C [Agonist P388] (Hexanoyl-HSDAVFTDNYT[Orn]LR[Aib]QVSA[Aib]KYLQSI[Orn]N[Orn]GGPSSGAPPPS-OH; C-terminus assumed) | > 2000 | > 3000 | > 25000 |  | ≥ 100 |  |  |
| CCCCCC(=O)N[C@@H](Cc1c[nH]cn1)C(=O)N[C@@H](CO)C(=O)N[C@@H](CC(=O)O)C(=O)N[C@@H](C)C(=O)N[C@H](C(=O)N[C@@H](Cc1ccccc1)C(=O)N[C@H](C(=O)N[C@@H](CC(=O)O)C(=O)N[C@@H](CCC(N)=O)C(=O)N[C@@H](Cc1ccc(OC)cc1)C(=O)N[C@H](C(=O)N[C@@H](CCCN)C(=O)N[C@@H](CC(C)C)C(=O)N[C@@H](CCCNC(=N)N)C(=O)NC(C)(C)C(=O)N[C@@H](CCC(N)=O)C(=O)N[C@@H](CC(C)C)C(=O)N[C@@H](C)C(=O)N[C@@H](C)C(=O)NC(C)(C)C(=O)N[C@@H](CCCN)C(=O)N[C@@H](Cc1ccc(O)cc1)C(=O)N[C@@H](CC(C)C)C(=O)N[C@@H](CCC(N)=O)C(=O)N[C@@H](CO)C(=O)N[C@H](C(=O)N[C@@H](CCCN)C(=O)N[C@@H](CCCN)C(=O)NCC(=O)NCC(=O)N1CCC[C@H]1C(=O)N[C@@H](CO)C(=O)N[C@@H](CO)C(=O)NCC(=O)N[C@@H](C)C(=O)N1CCC[C@H]1C(=O)N1CCC[C@H]1C(=O)N1CCC[C@H]1C(=O)N[C@@H](CO)C(=O)O)[C@@H](C)CC)[C@@H](C)O)[C@@H](C)O)C(C)C [Agonist P394] (Hexanoyl-HSDAVFTDQY(Me)T[Orn]LR[Aib]QLAA[Aib][Orn]YLQSI[Orn][Orn]GGPSSGAPPPS-OH; C-terminus assumed) | 0.48 |  | > 25000 |  |  | 0.11 | 0.03 |
